*1 amine or outer side, *2 acyl side, *3 side chain or, on linkers, in order; H or OH if unused. Where a SMILES comes first, the peptide text is derived from it. Side-chain parts run from the residue outwards. [ ]: non-standard residue; d: D form. The star is where a group is joined. C20 diacid = O=C(O)CCCCCCCCCCCCCCCCCCC(=O)*; γGlu = O=C(O)[C@H](CCC(=O)[*:2])N[*:1]; Dap = NC[C@H](N)C(=O)O; AEEA = NCCOCCOCC(=O)O; Aib = CC(C)(N)C(=O)O

Test [1] deals with T1, human GIP R (Homo sapiens, UniProt P48546).
T1 construct: expressed in transfected cells
T1 sequence (P48546 22-466): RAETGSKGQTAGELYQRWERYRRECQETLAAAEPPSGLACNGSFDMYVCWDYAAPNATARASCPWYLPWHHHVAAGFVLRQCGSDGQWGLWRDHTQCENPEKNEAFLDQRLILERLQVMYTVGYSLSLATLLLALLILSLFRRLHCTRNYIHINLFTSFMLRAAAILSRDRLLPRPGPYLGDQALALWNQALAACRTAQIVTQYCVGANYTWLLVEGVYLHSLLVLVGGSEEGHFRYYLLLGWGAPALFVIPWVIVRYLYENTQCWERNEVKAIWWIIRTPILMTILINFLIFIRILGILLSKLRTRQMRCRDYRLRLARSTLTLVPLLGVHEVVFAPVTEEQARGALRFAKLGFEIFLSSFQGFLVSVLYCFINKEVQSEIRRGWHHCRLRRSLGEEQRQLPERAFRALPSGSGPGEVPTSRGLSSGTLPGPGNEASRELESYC
The test is described as follows: Human GIP receptor (GIP R) activity assay, cAMP induction (AlphaScreen) in HEK293 cells. Format: cell-based. The settings on record: Table 3; most comprehensive data; read-out: hGIP-R cAMP EC50 average value. In outline:
(§1)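 Stable HEK293 clones expressing human GIP R or GLP-1 R, seeded 1 day before; cells washed in Tyrode's buffer (10 mM HEPES, pH 7.4), stimulated, then lysed. cAMP measured by AlphaScreen bead competition (1 h, room temperature, dark). EC50 = concentration giving half-maximal cAMP elevation, from curves of absolute cAMP (nM) vs log concentration.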

Test [2] addresses T2, human GLP-1 R (Homo sapiens, UniProt P43220).
T2 construct: expressed in transfected cells
In words: Human GLP-1 receptor (GLP-1 R) activity assay, cAMP induction (AlphaScreen) in HEK293 cells. The settings on record: Table 3; most comprehensive data; read-out: hGLP-1-R cAMP EC50 average value. Format: cell-based. The gist of the method:
as §1

T2 sequence (P43220 24-463): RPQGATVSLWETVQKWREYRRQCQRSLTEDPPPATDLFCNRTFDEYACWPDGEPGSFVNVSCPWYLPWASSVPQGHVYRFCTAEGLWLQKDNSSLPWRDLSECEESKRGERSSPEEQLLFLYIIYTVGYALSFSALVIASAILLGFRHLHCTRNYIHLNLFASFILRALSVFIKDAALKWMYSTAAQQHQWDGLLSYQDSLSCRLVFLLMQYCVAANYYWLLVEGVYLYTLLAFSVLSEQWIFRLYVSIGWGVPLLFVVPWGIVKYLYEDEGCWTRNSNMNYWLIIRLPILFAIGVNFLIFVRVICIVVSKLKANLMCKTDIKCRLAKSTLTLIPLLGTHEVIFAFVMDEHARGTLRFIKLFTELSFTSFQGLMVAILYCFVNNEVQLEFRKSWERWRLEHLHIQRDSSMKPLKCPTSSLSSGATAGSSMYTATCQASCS

In the case of `CC[C@H](C)[C@H](NC(=O)[C@H](CO)NC(=O)[C@H](Cc1ccc(O)cc1)NC(=O)[C@H](CC(=O)O)NC(=O)[C@H](CO)NC(=O)[C@@H](NC(=O)[C@H](Cc1ccccc1)NC(=O)[C@@H](NC(=O)CNC(=O)[C@H](CCC(=O)O)NC(=O)C(C)(C)NC(=O)[C@@H](N)Cc1ccc(O)cc1)[C@@H](C)O)[C@@H](C)O)C(=O)N[C@@H](Cc1ccc(O)cc1)C(=O)N[C@@H](CC(C)C)C(=O)N[C@@H](CC(=O)O)C(=O)N[C@@H](CCCCN)C(=O)N[C@@H](CCCCNC(=O)COCCOCCNC(=O)COCCOCCNC(=O)[C@H](CN)NC(=O)CCCCCCCCCCCCCCCCCCC(=O)O)C(=O)N[C@@H](C)C(=O)N[C@@H](CCC(N)=O)C(=O)N[C@@H](CCCNC(=N)N)C(=O)N[C@@H](C)C(=O)N[C@@H](Cc1ccccc1)C(=O)N[C@H](C(=O)N[C@@H](CCC(=O)O)C(=O)N[C@@H](Cc1c[nH]c2ccccc12)C(=O)N[C@@H](CC(C)C)C(=O)N[C@@H](CC(C)C)C(=O)N[C@@H](C)C(=O)N[C@@H](CCC(N)=O)C(=O)NCC(=O)N1CCC[C@H]1C(=O)N[C@@H](CO)C(=O)N[C@@H](CO)C(=O)NCC(=O)N[C@@H](C)C(=O)N1CCC[C@H]1C(=O)N1CCC[C@H]1C(=O)N1CCC[C@H]1C(=O)N[C@@H](CO)C(N)=O)C(C)C` [Compound 37] (H-Y[Aib]EGTFTSDYSIYLDKK([AEEA-AEEA-Dap-C20 diacid])AQRAFVEWLLAQGPSSGAPPPS-NH2), the EC50 (as a rule, the concentration needed to bring the measured effect to its halfway point) in test [1] is 0.017 nM; in test [2] it was 0.014 nM.
On the same counts, the results for `CC[C@H](C)[C@H](NC(=O)[C@H](CO)NC(=O)[C@H](Cc1ccc(O)cc1)NC(=O)[C@H](CC(=O)O)NC(=O)[C@H](CO)NC(=O)[C@@H](NC(=O)[C@H](Cc1ccccc1)NC(=O)[C@@H](NC(=O)CNC(=O)[C@H](CCC(=O)O)NC(=O)C(C)(C)NC(=O)[C@@H](N)Cc1ccc(O)cc1)[C@@H](C)O)[C@@H](C)O)C(=O)N[C@@H](C)C(=O)N[C@@H](CC(C)C)C(=O)N[C@@H](CC(=O)O)C(=O)N[C@@H](CCCCN)C(=O)N[C@@H](CCCCNC(=O)COCCOCCNC(=O)COCCOCCNC(=O)CC[C@H](NC(=O)CCCCCCCCCCCCCCCCCCC(=O)O)C(=O)O)C(=O)N[C@@H](C)C(=O)N[C@@H](CCC(N)=O)C(=O)N[C@@H](CCCNC(=N)N)C(=O)N[C@@H](C)C(=O)N[C@@H](Cc1ccccc1)C(=O)N[C@H](C(=O)N[C@@H](CCC(=O)O)C(=O)N[C@@H](Cc1c[nH]c2ccccc12)C(=O)N[C@@H](CC(C)C)C(=O)N[C@@H](CC(C)C)C(=O)N[C@@H](C)C(=O)N[C@@H](CCC(N)=O)C(=O)N[C@@H](CCCCN)C(=O)N1CCC[C@H]1C(=O)N[C@@H](CO)C(=O)N[C@@H](CO)C(=O)NCC(=O)N[C@@H](C)C(=O)N1CCC[C@H]1C(=O)N1CCC[C@H]1C(=O)N1CCC[C@H]1C(=O)N[C@@H](CO)C(N)=O)C(C)C` [Compound 38] (H-Y[Aib]EGTFTSDYSIALDKK([AEEA-AEEA-γGlu-C20 diacid])AQRAFVEWLLAQKPSSGAPPPS-NH2) are 0.005 nM and 0.012 nM.
On the same counts, the results for `CC[C@H](C)[C@H](NC(=O)[C@H](CO)NC(=O)[C@H](Cc1ccc(O)cc1)NC(=O)[C@H](CC(=O)O)NC(=O)[C@H](CO)NC(=O)[C@@H](NC(=O)[C@H](Cc1ccccc1)NC(=O)[C@@H](NC(=O)CNC(=O)[C@H](CCC(=O)O)NC(=O)[C@@H](C)NC(=O)[C@@H](N)Cc1ccc(O)cc1)[C@@H](C)O)[C@@H](C)O)C(=O)N[C@@H](C)C(=O)N[C@@H](CC(C)C)C(=O)N[C@@H](CC(=O)O)C(=O)N[C@@H](CCCCN)C(=O)N[C@@H](CCCCNC(=O)COCCOCCNC(=O)COCCOCCNC(=O)CC[C@H](NC(=O)CCCCCCCCCCCCCCCCCCC(=O)O)C(=O)O)C(=O)N[C@@H](C)C(=O)N[C@@H](CCC(N)=O)C(=O)N[C@@H](CCCNC(=N)N)C(=O)N[C@@H](C)C(=O)N[C@@H](Cc1ccccc1)C(=O)N[C@H](C(=O)N[C@@H](CCC(=O)O)C(=O)N[C@@H](Cc1c[nH]c2ccccc12)C(=O)N[C@@H](CC(C)C)C(=O)N[C@@H](CC(C)C)C(=O)N[C@@H](C)C(=O)N[C@@H](CCC(N)=O)C(=O)N[C@@H](CCCCN)C(=O)N1CCC[C@H]1C(=O)N[C@@H](CO)C(=O)N[C@@H](CO)C(=O)NCC(=O)N[C@@H](C)C(=O)N1CCC[C@H]1C(=O)N1CCC[C@H]1C(=O)N1CCC[C@H]1C(=O)N[C@@H](CO)C(N)=O)C(C)C` [Compound 39] (H-Y[dA]EGTFTSDYSIALDKK([AEEA-AEEA-γGlu-C20 diacid])AQRAFVEWLLAQKPSSGAPPPS-NH2) are 0.011 nM and 0.006 nM.
On the same counts, the results for `CC[C@H](C)[C@H](NC(=O)[C@H](CO)NC(=O)[C@H](Cc1ccc(O)cc1)NC(=O)[C@H](CC(=O)O)NC(=O)[C@H](CO)NC(=O)[C@@H](NC(=O)[C@H](Cc1ccccc1)NC(=O)[C@@H](NC(=O)CNC(=O)[C@H](CCC(=O)O)NC(=O)C(C)(C)NC(=O)[C@@H](N)Cc1ccc(O)cc1)[C@@H](C)O)[C@@H](C)O)C(=O)N[C@@H](C)C(=O)N[C@@H](CC(C)C)C(=O)N[C@@H](CC(=O)O)C(=O)N[C@@H](CCCCN)C(=O)N[C@@H](CCCCNC(=O)COCCOCCNC(=O)COCCOCCNC(=O)CC[C@H](NC(=O)CCCCCCCCCCCCCCCCCCC(=O)O)C(=O)O)C(=O)N[C@@H](C)C(=O)N[C@@H](CCC(N)=O)C(=O)N[C@@H](CCCNC(=N)N)C(=O)N[C@@H](C)C(=O)N[C@@H](Cc1ccccc1)C(=O)N[C@H](C(=O)N[C@@H](CCC(=O)O)C(=O)N[C@@H](Cc1c[nH]c2ccccc12)C(=O)N[C@@H](CC(C)C)C(=O)N[C@@H](CC(C)C)C(=O)N[C@@H](C)C(=O)N[C@@H](C)C(=O)N1CCC[C@H]1C(=O)N[C@@H](CO)C(=O)N[C@@H](CO)C(=O)NCC(=O)N[C@@H](C)C(=O)N1CCC[C@H]1C(=O)N1CCC[C@H]1C(=O)N1CCC[C@H]1C(=O)N[C@@H](CO)C(N)=O)C(C)C` [Compound 40] (H-Y[Aib]EGTFTSDYSIALDKK([AEEA-AEEA-γGlu-C20 diacid])AQRAFVEWLLAAPSSGAPPPS-NH2) are 0.023 nM and 0.021 nM.
Turning to `CC[C@H](C)[C@H](NC(=O)[C@H](CO)NC(=O)[C@H](Cc1ccc(O)cc1)NC(=O)[C@H](CC(=O)O)NC(=O)[C@H](CO)NC(=O)[C@@H](NC(=O)[C@H](Cc1ccccc1)NC(=O)[C@@H](NC(=O)CNC(=O)[C@H](CCC(=O)O)NC(=O)C(C)(C)NC(=O)[C@@H](N)Cc1ccc(O)cc1)[C@@H](C)O)[C@@H](C)O)C(=O)N[C@@H](C)C(=O)N[C@@H](CC(C)C)C(=O)N[C@@H](CC(=O)O)C(=O)N[C@@H](CCCCN)C(=O)N[C@@H](CCCCNC(=O)COCCOCCNC(=O)COCCOCCNC(=O)CC[C@H](NC(=O)CCCCCCCCCCCCCCCCCCC(=O)O)C(=O)O)C(=O)N[C@@H](C)C(=O)N[C@@H](C)C(=O)N[C@@H](CCCCN)C(=O)N[C@@H](CCC(=O)O)C(=O)N[C@@H](Cc1ccccc1)C(=O)N[C@H](C(=O)N[C@@H](CCC(=O)O)C(=O)N[C@@H](Cc1c[nH]c2ccccc12)C(=O)N[C@@H](CC(C)C)C(=O)N[C@@H](CC(C)C)C(=O)N[C@@H](CO)C(=O)N[C@@H](C)C(=O)NCC(=O)N1CCC[C@H]1C(=O)N[C@@H](CO)C(=O)N[C@@H](CO)C(=O)NCC(=O)N[C@@H](C)C(=O)N1CCC[C@H]1C(=O)N1CCC[C@H]1C(=O)N1CCC[C@H]1C(=O)N[C@@H](CO)C(N)=O)C(C)C` [Compound 41] (H-Y[Aib]EGTFTSDYSIALDKK([AEEA-AEEA-γGlu-C20 diacid])AAKEFVEWLLSAGPSSGAPPPS-NH2), the EC50 was determined as 0.015 nM in test [1] and 0.038 nM in test [2].
On the same counts, the results for `CC[C@H](C)[C@H](NC(=O)[C@H](CO)NC(=O)[C@H](Cc1ccc(O)cc1)NC(=O)[C@H](CC(=O)O)NC(=O)[C@H](CO)NC(=O)[C@@H](NC(=O)[C@H](Cc1ccccc1)NC(=O)[C@@H](NC(=O)CNC(=O)[C@H](CCC(=O)O)NC(=O)C(C)(C)NC(=O)[C@@H](N)Cc1ccc(O)cc1)[C@@H](C)O)[C@@H](C)O)C(=O)N[C@@H](C)C(=O)N[C@@H](CC(C)C)C(=O)N[C@@H](CC(=O)O)C(=O)N[C@@H](CCCCN)C(=O)N[C@@H](CCCCNC(=O)COCCOCCNC(=O)COCCOCCNC(=O)CC[C@H](NC(=O)CCCCCCCCCCCCCCCCCCC(=O)O)C(=O)O)C(=O)N[C@@H](C)C(=O)N[C@@H](CCC(N)=O)C(=O)N[C@@H](CCCNC(=N)N)C(=O)N[C@@H](C)C(=O)N[C@@H](Cc1ccccc1)C(=O)N[C@H](C(=O)N[C@@H](CCC(=O)O)C(=O)N[C@@H](Cc1c[nH]c2ccccc12)C(=O)N[C@@H](CC(C)C)C(=O)N[C@@H](CC(C)C)C(=O)N[C@@H](C)C(=O)N[C@@H](CCC(N)=O)C(=O)NCC(=O)N1CCC[C@H]1C(=O)N[C@@H](CO)C(=O)N[C@@H](CO)C(=O)NCC(=O)N[C@@H](C)C(=O)N1CCC[C@H]1C(=O)N1CCC[C@H]1C(=O)N1CCC[C@H]1C(=O)N[C@@H](CO)C(N)=O)C(C)C` [Compound 42] (H-Y[Aib]EGTFTSDYSIALDKK([AEEA-AEEA-γGlu-C20 diacid])AQRAFVEWLLAQGPSSGAPPPS-NH2) are 0.009 nM and 0.017 nM.
